Measured values published in PubChem BioAssay (NCI).
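Assay format: 96-well plates, 48-hour exposure. TGI is the concentration that stops growth completely.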

Columns and labels:
Test in all cases: inhibition of tumour cell growth, NCI panel, 48 h
SR leukemia = tested on: SR leukemia
BT-549 breast = tested on: BT-549 breast
UACC-257 melanoma = tested on: UACC-257 melanoma
MDA-MB-231 breast = tested on: MDA-MB-231 breast
SF-295 CNS = tested on: SF-295 CNS
DU-145 prostate = tested on: DU-145 prostate
NCI/ADR-RES ovarian = tested on: NCI/ADR-RES ovarian
LOX IMVI melanoma = tested on: LOX IMVI melanoma
NCI-H460 lung = tested on: NCI-H460 lung
MOLT-4 leukemia = tested on: MOLT-4 leukemia
M14 melanoma = tested on: M14 melanoma
SK-MEL-28 melanoma = tested on: SK-MEL-28 melanoma
PC-3 prostate = tested on: PC-3 prostate
UACC-62 melanoma = tested on: UACC-62 melanoma
SW-620 colon = tested on: SW-620 colon
ACHN renal = tested on: ACHN renal
NCI-H23 lung = tested on: NCI-H23 lung
MDA-N = tested on: MDA-N
HCC-2998 colon = tested on: HCC-2998 colon
NCI-H226 lung = tested on: NCI-H226 lung
SK-MEL-2 melanoma = tested on: SK-MEL-2 melanoma
IGROV1 ovarian = tested on: IGROV1 ovarian
MDA-MB-435 = tested on: MDA-MB-435
COLO 205 colon = tested on: COLO 205 colon
UO-31 renal = tested on: UO-31 renal
SK-OV-3 ovarian = tested on: SK-OV-3 ovarian
SN12C renal = tested on: SN12C renal
MALME-3M melanoma = tested on: MALME-3M melanoma
HCT-15 colon = tested on: HCT-15 colon
A549 NSCLC = tested on: A549 NSCLC
TK-10 renal = tested on: TK-10 renal
OVCAR-3 ovarian = tested on: OVCAR-3 ovarian
CAKI-1 renal = tested on: CAKI-1 renal
K-562 leukemia = tested on: K-562 leukemia
EKVX NSCLC = tested on: EKVX NSCLC
SNB-19 CNS = tested on: SNB-19 CNS
HOP-62 NSCLC = tested on: HOP-62 NSCLC
RXF 393 renal = tested on: RXF 393 renal
SK-MEL-5 melanoma = tested on: SK-MEL-5 melanoma
NCI-H522 lung = tested on: NCI-H522 lung
786-0 renal = tested on: 786-0 renal
T-47D breast = tested on: T-47D breast
CCRF-CEM leukemia = tested on: CCRF-CEM leukemia
HCT-116 colon = tested on: HCT-116 colon
OVCAR-4 ovarian = tested on: OVCAR-4 ovarian
U251 CNS = tested on: U251 CNS
HT29 colon = tested on: HT29 colon
OVCAR-5 ovarian = tested on: OVCAR-5 ovarian
HOP-92 NSCLC = tested on: HOP-92 NSCLC
RPMI-8226 leukemia = tested on: RPMI-8226 leukemia
MCF7 breast = tested on: MCF7 breast
HS 578T breast = tested on: HS 578T breast
SF-539 CNS = tested on: SF-539 CNS
SNB-75 CNS = tested on: SNB-75 CNS
OVCAR-8 ovarian = tested on: OVCAR-8 ovarian
SF-268 CNS = tested on: SF-268 CNS
HL-60(TB) leukemia = tested on: HL-60(TB) leukemia
KM12 colon = tested on: KM12 colon
A498 renal = tested on: A498 renal

Measured: TGI

O=CC12CCCN1CCC2
not listed: HOP-92 NSCLC | RPMI-8226 leukemia | MCF7 breast | HS 578T breast | SF-539 CNS | SNB-75 CNS | OVCAR-8 ovarian | SF-268 CNS | HL-60(TB) leukemia | KM12 colon | A498 renal
> 100 µM: all other assays above

CCc1nc2cc(F)ccc2[nH]c1=O
not listed: SR leukemia | IGROV1 ovarian | NCI-H522 lung | T-47D breast
> 100 µM: all other assays above

Cc1cc(NS(=O)(=O)c2ccc(NC(NC(=O)OC(C)C)(C(F)(F)F)C(F)(F)F)cc2)nc(C)n1
not listed: BT-549 breast | SK-MEL-2 melanoma | UO-31 renal | NCI-H522 lung
> 100 µM: all other assays above

CN(C)c1ccc(/C=C2\CCCCCC2=O)cc1
not listed: LOX IMVI melanoma | NCI-H23 lung | NCI-H226 lung | HCT-15 colon | NCI-H522 lung | OVCAR-4 ovarian | U251 CNS | HOP-92 NSCLC | HS 578T breast
> 100 µM: all other assays above
